Assay results: US20200315232A1, “Method to Improve Dispersibility of a Material Having Low Solubility in Water” (PepsiCo, Inc., priority 2012, published 2020)
Residues, ends and D or L forms follow the SMILES beside them.

Legend:
[1] = format: physicochemical
Description: Traditionally, the beverage industry makes certain carbonated beverages by first making concentrated syrup and then diluting the syrup with water at the time and place of making the beverage. The dilution ratio in such beverages is often 1:5; meaning one part syrup is mixed with five parts water. The beverage often is carbonated at the time of being bottled or otherwise packaged. For any ingredient to be incorporated into such a 1:5 syrup, the solubility of the ingredient in the syrup must be at least six times higher than its desired concentration in the finished beverage. […] It would be advantageous, therefore, to develop improved methods of incorporating rebaudioside D into an aqueous solution.

[2] = cited from earlier work; for Sweetness potency: commonly accepted potency figures, weight basis
[3] = cited from earlier work

Compound	Sweetness potency [2]	Water solubility (in words) [3]	also measured
C=C1C[C@@]23CC[C@H]4[C@@](C)(CCC[C@@]4(C)C(=O)O[C@@H]4O[C@H](CO)[C@@H](O)[C@H](O)[C@H]4O[C@@H]4O[C@H](CO)[C@@H](O)[C@H](O)[C@H]4O)[C@@H]2CC[C@]1(O[C@@H]1O[C@H](CO)[C@@H](O)[C@H](O[C@@H]2O[C@H](CO)[C@@H](O)[C@H](O)[C@H]2O)[C@H]1O[C@@H]1O[C@H](CO)[C@@H](O)[C@H](O)[C@H]1O)C3 [Rebaudioside D, rebaudioside D]	180-200 times as sweet as sugar	low	Stable solubility in aqueous solution [1]: no more than 450 ppm
COc1ccc(CCC(=O)c2c(O)cc(O[C@@H]3O[C@H](CO)[C@@H](O)[C@H](O)[C@H]3O[C@@H]3O[C@@H](C)[C@H](O)[C@@H](O)[C@H]3O)cc2O)cc1O [Neohesperidin dihydrochalcone]	300 times as sweet as sugar		
C[C@H](CC[C@@H](O[C@@H]1O[C@H](CO[C@@H]2O[C@H](CO)[C@@H](O)[C@H](O)[C@H]2O)[C@@H](O)[C@H](O)[C@H]1O[C@@H]1O[C@H](CO)[C@@H](O)[C@H](O)[C@H]1O)C(C)(C)O)[C@H]1CC[C@@]2(C)[C@@H]3CC=C4[C@@H](CC[C@H](O[C@@H]5O[C@H](CO[C@@H]6O[C@H](CO)[C@@H](O)[C@H](O)[C@H]6O)[C@@H](O)[C@H](O)[C@H]5O)C4(C)C)[C@]3(C)[C@H](O)C[C@]12C [Mogroside V]	100-300 times as sweet as sugar		
OC[C@H]1O[C@H](O[C@]2(CCl)O[C@H](CCl)[C@@H](O)[C@@H]2O)[C@H](O)[C@@H](O)[C@H]1Cl [Sucralose]	600 times as sweet as sugar		
O=C1NS(=O)(=O)c2ccccc21 [Saccharine]	300 times as sweet as sugar		
COC(=O)[C@H](Cc1ccccc1)NC(=O)[C@H](CC(=O)O)NCCC(C)(C)C [Neotame]	8,000 times as sweet as sugar		
C=C1C[C@@]23CC[C@H]4[C@@](C)(CCC[C@@]4(C)C(=O)O[C@@H]4O[C@H](CO)[C@@H](O)[C@H](O)[C@H]4O)[C@@H]2CC[C@]1(O[C@@H]1O[C@H](CO)[C@@H](O)[C@H](O[C@@H]2O[C@H](CO)[C@@H](O)[C@H](O)[C@H]2O)[C@H]1O[C@@H]1O[C@H](CO)[C@@H](O)[C@H](O)[C@H]1O)C3 [Rebaudioside A, rebaudioside A]	150-300 times as sweet as sugar	more soluble than stevioside	Sweetness relative to sucrose ([2]; background statement): approximately 200 times sweeter than sucrose; Solubility in aqueous solution ([3]; room temperature): at least 3000 ppm
COC(=O)[C@H](Cc1ccccc1)NC(=O)[C@@H](N)CC(=O)O [Aspertame] (H-Asp-Phe-OMe)	200 times as sweet as sugar		
CC1=CC(=O)[N-]S(=O)(=O)O1.[K+] [Acesulfame-K]	200 times as sweet as sugar		
C=C1C[C@@]23CC[C@H]4[C@@](C)(CCC[C@@]4(C)C(=O)O[C@@H]4O[C@H](CO)[C@@H](O)[C@H](O)[C@H]4O)[C@@H]2CC[C@]1(O[C@@H]1O[C@H](CO)[C@@H](O)[C@H](O)[C@H]1O[C@@H]1O[C@H](CO)[C@@H](O)[C@H](O)[C@H]1O)C3 [Stevioside, stevioside]	100-250 times as sweet as sugar	only sparingly soluble in water	
